Results taken from patent publication US11318157B2, “6-6 bicyclic aromatic ring substituted nucleoside analogues for use as PRMT5 inhibitors” (Janssen Pharmaceutica NV, priority 2015, dated 2022).
Where two headings read alike, the source gives them in different places.

Assays:
[1] = biological target: T1, PRMT5-MEP50 enzyme (Homo sapiens, UniProt O14744); test: In vitro assay 1b: high throughput mass spectrometer assay of SAH formation, 1.25 nM enzyme, 120 min; format: biochemical; conditions: averaged values; PRMT5-MEP50, 1.25 nM enzyme, 120 min; read-out: pIC50 Assay 1b (converted)
T1 construct: One virus expresses full length human PRMT5 with Flag-tag at N-terminus; Flag (N); purchased Charles River (Argenta); host or cells: insect cells (Sf9), baculovirus co-infection
T1 sequence (O14744 whole entry): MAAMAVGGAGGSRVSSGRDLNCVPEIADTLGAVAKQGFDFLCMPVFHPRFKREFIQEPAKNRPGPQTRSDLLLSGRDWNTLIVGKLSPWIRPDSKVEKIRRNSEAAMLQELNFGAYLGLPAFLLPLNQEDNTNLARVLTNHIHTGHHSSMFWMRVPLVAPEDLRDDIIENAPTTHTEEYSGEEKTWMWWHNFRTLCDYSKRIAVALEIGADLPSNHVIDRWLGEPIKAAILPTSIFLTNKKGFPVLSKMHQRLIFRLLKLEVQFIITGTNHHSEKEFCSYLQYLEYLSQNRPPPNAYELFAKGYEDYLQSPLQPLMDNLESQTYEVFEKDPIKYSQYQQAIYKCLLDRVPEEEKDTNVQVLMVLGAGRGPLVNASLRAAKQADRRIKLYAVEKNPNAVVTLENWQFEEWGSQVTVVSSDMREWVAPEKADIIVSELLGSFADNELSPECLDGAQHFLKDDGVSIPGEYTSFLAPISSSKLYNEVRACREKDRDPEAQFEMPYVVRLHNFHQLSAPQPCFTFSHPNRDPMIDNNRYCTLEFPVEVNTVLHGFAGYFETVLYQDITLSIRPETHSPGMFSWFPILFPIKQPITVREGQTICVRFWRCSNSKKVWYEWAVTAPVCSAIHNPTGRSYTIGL
T1 sequence (Q9BQA1 whole entry partner): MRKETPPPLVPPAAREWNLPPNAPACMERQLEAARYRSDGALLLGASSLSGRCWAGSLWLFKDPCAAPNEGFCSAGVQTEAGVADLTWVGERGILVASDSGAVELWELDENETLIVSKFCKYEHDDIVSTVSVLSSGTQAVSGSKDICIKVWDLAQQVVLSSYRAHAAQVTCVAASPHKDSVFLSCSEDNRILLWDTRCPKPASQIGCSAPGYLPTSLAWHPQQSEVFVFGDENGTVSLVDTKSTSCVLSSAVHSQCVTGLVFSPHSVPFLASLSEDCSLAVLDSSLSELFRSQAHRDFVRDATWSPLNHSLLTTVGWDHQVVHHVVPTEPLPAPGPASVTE
From the text: Experimental Procedures In Vitro Assay (Assay 1a and 1b)
PRMT5-MEP50 enzyme was purchased from Charles River (Argenta). The enzyme complex was produced in insect cells (Sf9) infected simultaneously with two baculoviruses. One virus expresses full length human PRMT5 with Flag-tag at N-terminus, the second virus expresses full length MEP50 with His6-TEV cleavage at N-terminus. The protein was affinity purified using anti-Flag (M2) beads eluted with 3×FLAG peptide, followed by His-Select eluted with 0.5M imidazole. Eluted protein was then dialysed against tris-buffered saline (TBS) (pH 8.0) containing 20% glycerol and 3 mM dithiothreitol (DTT).
Full-length untagged human recombinant histone H2A (residues 1-130, Genbank Accession #NM_021052 MW=14.1 kDa) expressed in E. coli was purchased from Reaction Biology Corporation, Cat #HMT-11-146. Reagents used for making reaction buffer or stopping reaction were purchased including Tris base (Sigma Cat #T-1503), NaCl (Sigma Cat #RGF-3270), MgCl2 (Sigma Cat #M0250), DTTI (Invitrogen Cat #15508-013) and Formic Acid (Riedel deHaen, Cat #33015)
High Throughput Mass Spectrometer Assay
PRMT5 catalyzes the sequential methylations of the terminal nitrogen atoms on the guanidine groups of arginine residues within proteins using co-substrate S-adenosyl-L-methionine (AdoMet, SAM), forming mono-methyl (MMA), symmetric-dimethyl arginine (sDMA) and S-adenosyl-L-homocysteine (AdoHcy, SAH). The enzyme activity was determined by following the product SAH formation using high throughput mass spectrometry (Agilent Rapidfire 300 System coupled to a Sciex 4000 series QTrap® triple-quad MS/MS). The reaction buffer was 20 mM Tris-HCl, pH 8.5, 50 mM NaCl, 5 mM MgCl2 and 1 mM DTT. The reaction activity was stopped using 1% formic acid (final concentration).
The IC50 Studies were performed using eleven point dosing series made for each compound by serially diluted 1:2 in dimethyl sulfoxide (DMSO), with point 12 being a DMSO control. Compounds were first spotted to plates, and followed by addition of 2 μM SAM and 0.6 μM H2A (histone H2A) solution mixture. The same volume of enzyme solution was added to initiate the enzymatic reactions. The final concentrations of the reaction are at 1 μM SAM, 0.3 μM H2A and 10 nM enzyme (assay 1a) or 1.25 nM enzyme (assay 1b). The reaction was incubated at 30° C. for 60 minutes (min) when 10 nM enzyme was used and for 120 min when 1.25 nM enzyme was used. Subsequently, the reaction was quenched by addition of formic acid to a final concentration of 1%. The inhibitions of SAH formation in the presence of compounds were calculated as a percentage of the control relative to the uninhibited reaction as a function of inhibitor concentration. The data were fit as follows: Y=Bottom+(Top−Bottom)/(1+10^((log IC50−X)*h))
where IC50 is the inhibitor concentration (same unit as X) at 50% inhibition and h is the Hill slope. Y is percent of inhibition, X is log of compound concentration. Bottom and Top are the plateaus in same units as Y.

[2] = test system: nuclear symmetric Arginine dimethylation in A549 cells; test: PD assay (assay 2): inhibition of nuclear symmetric Arginine dimethylation (SYM10 immunohistochemistry), 48 h; format: cell-based; conditions: Homo sapiens
Protocol: Experimental Procedure PD Assay (Assay 2)
A549 cells (ATCC, Cat #CCL-185) were cultured in Dulbecco's Modified Eagle's Medium (DMEM) (Sigma, Cat #D5796), supplemented with 10% Fetal Calf Serum (FCS) (HyClone™, Cat #SV30160.03), 100 mM Sodium Pyruvate (Sigma, Cat #S8636), 200 mM L-Glutamine (Sigma, Cat #G7513) and 50 mg/mL gentamycin (Gibco, Cat #15750-037).
Reagents used for buffers were purchased: Dulbecco's phosphate buffered saline (DPBS) without Ca/Mg (Sigma, Cat #D8537), phosphate buffered saline (PBS) 10× (Roche, Cat #11 666 789 001), Formalin solution 10% (Sigma, HT50-1-128-4L), Methanol 100% (Sigma, Cat #32213-2.5L), Triton X-100 (Acros, Cat #215680010), Bovine Serum Albumin (BSA) (Sigma, Cat #A2153), Alexa fluor 488 goat anti-rabbit antibody (Life Technologies, Cat #A11034), HCS CellMask Deep Red Stain (Life Technologies, Cat #H32721), Hoechst Stain (Life Technologies, Cat #33258), Anti-dimethyl-Arginine, sym (SYM10) antibody (Millipore, 07-412).
Immunohistochemistry Procedure
Cells were plated at 400 cells/40 μL/well in 384 well black μplates clear bottom (Perkin Elmer) and overnight incubated at 37° C., 5% CO2. […] 80 nL of the respective dilution of the compounds was added using the Labcyte POD 810 (Labcyte) reaching a final DMSO concentration of 0.2% in cell culture. After an incubation period of 48 h at 37° C. and 5% CO2, cells were fixed in 10% formalin solution for 15 min at room temperature and 20 min in ice-cold methanol, after which they were washed 3× in DPBS. Subsequently, the cells were blocked for 1 h in blocking buffer (PBS+1% BSA and 0.5% Triton X-100) and incubated overnight at 4° C. with the SYM10 antibody diluted 1/2000 in blocking buffer. The cells were washed 3× with washing buffer (PBS+0.1% Triton X-100) and incubated with the Alexa fluor 488 goat anti-rabbit antibody diluted 1/200 in blocking buffer for 1 h at room temperature. Subsequently, they were washed 3× with washing buffer and incubated for 30 min at room temperature with PBS containing a 1/5000 dilution of Hoechst Stain and a 1/5000 dilution of the HCS CellMask Deep Red Stain. After a final wash with PBS, the plates were imaged using the 10×W lens of the Opera® system (Perkin Elmer Life Sciences) using following settings (values in nm):
In the above equations, the following variable names are used: […]
In the above equations, the following controls were used for normalization: […]
Low control: minimum level of symmetrically dimethylated Arginines (cells treated with reference compound at 10 μM).
High control: maximum level of symmetrically dimethylated Arginines (DMSO treated cells).
IC50 and pIC50 (−log IC50) values were calculated using the appropriate software.
The pIC50 values in the Table below are averaged values (Co. No. means compound number; n.d. means not determined).

[3] = A549, averaged values, PD assay, A549 cells, symmetric Arginine dimethylation, read-out: pIC50 Assay 2 (converted)
[4] = A549, read-out: pIC50 Assay 2 (converted)

IC50 [1] | IC50 [2, 3] | Structure (SMILES) | IC50 [2, 4]
12.6 nM | 79.4 nM | Nc1ncnc2c1ccn2[C@@H]1O[C@H](COc2ccc3cccnc3c2)[C@@H](O)[C@H]1O [Compound 1] | 
 |  | Nc1ccc2ccc(CC[C@H]3C[C@@H](n4ccc5c(N)ncnc54)[C@H](O)[C@@H]3O)cc2n1 [Compound 76] | 0.158 nM
 | 0.251 nM | Nc1nc2cc(CC[C@H]3C[C@@H](n4ccc5c(N)ncnc54)[C@H](O)[C@@H]3O)ccc2cc1Br [Compound 80] | 
200 nM | 31.6 nM | Nc1ncnc2c1ccn2[C@@H]1C[C@H](CCc2ccc3cc(Br)c(NC4CC4)nc3c2)[C@@H](O)[C@H]1O [Compound 153] | 
0.316 nM | 2.51 nM | Nc1nc2cc(CC[C@H]3C[C@@H](n4ccc5c(N)ncnc54)[C@H](O)[C@@H]3O)ccc2cc1C(F)(F)F [Compound 154] | 
158 nM | 251 nM | Nc1ncnc2c1ccn2[C@@H]1C[C@H](CCc2ccc3cc(F)c(NCC4CC4)nc3c2)[C@@H](O)[C@H]1O [Compound 155] | 
0.316 nM | < 1.17 nM | Nc1ncnc2c1ccn2[C@@H]1C[C@H](CCc2ccc3ccc(NC4CCC4)nc3c2)[C@@H](O)[C@H]1O [Compound 156] | 
631 nM | 501 nM | CNc1nc2cc(CC[C@H]3C[C@@H](n4ccc5c(N)ncnc54)[C@H](O)[C@@H]3O)ccc2cc1F [Compound 157] | 
0.126 nM | 3.16 nM | Nc1nc2cc(CC[C@H]3O[C@@H](n4ccc5c(N)ncnc54)[C@H](O)[C@@H]3O)ccc2cc1Cl [Compound 158] | 
0.126 nM | < 1.17 nM | Nc1nc2cc(CC[C@H]3C[C@@H](n4ccc5c(N)ncnc54)[C@H](O)[C@@H]3O)ccc2cc1F [Compound 159] | 
0.794 nM | 15.8 nM | Nc1ncnc2c1ccn2[C@@H]1C[C@H](OCc2ccc3ccc(NCC4CC4)nc3c2)[C@@H](O)[C@H]1O [Compound 160] | 
1.58 nM | 39.8 nM | Nc1ncnc2c1ccn2[C@@H]1C[C@H](CCc2ccc3ccc(Nc4ccc(Cl)cc4)nc3c2)[C@@H](O)[C@H]1O [Compound 161] | 
7.94 nM | 158 nM | CNc1ncnc2c1ccn2[C@@H]1C[C@H](CCc2ccc3ccc(NCC(F)(F)F)nc3c2)[C@@H](O)[C@H]1O [Compound 162] | 
0.794 nM | 10 nM | CNc1ccc2ccc(CC[C@H]3C[C@@H](n4ccc5c(NC)ncnc54)[C@H](O)[C@@H]3O)cc2n1 [Compound 178] | 
0.631 nM | 5.01 nM | CNc1ncnc2c1ccn2[C@@H]1C[C@H](CCc2ccc3ccc(NC4CC4)nc3c2)[C@@H](O)[C@H]1O [Compound 179] | 
1.26 nM | 39.8 nM | CNc1ccc2ccc(CC[C@H]3C[C@@H](n4ccc5c(OC)ncnc54)[C@H](O)[C@@H]3O)cc2n1 [Compound 180] | 

IC50 [1] | IC50 [2, 3] | Structure (SMILES) | IC50 [2, 4]
1.26 nM | 39.8 nM | COc1ncnc2c1ccn2[C@@H]1C[C@H](CCc2ccc3ccc(NC4CC4)nc3c2)[C@@H](O)[C@H]1O [Compound 181] | 
< 0.2 nM |  | Nc1ncnc2c1ccn2[C@@H]1C[C@H](COc2ccc3ccc(NCC4CC4)nc3c2)[C@@H](O)[C@H]1O [Compound 224] | 
6.31 nM |  | CNc1ncnc2c1ccn2[C@@H]1C[C@H](COc2ccc3ccc(NCC4CC4)nc3c2)[C@@H](O)[C@H]1O [Compound 225] | 
1.26 nM |  | CNc1ncnc2c1ccn2[C@@H]1C[C@H](COc2ccc3cc(Cl)c(N)nc3c2)[C@@H](O)[C@H]1O [Compound 227] | 
5.01 nM |  | COc1ncnc2c1ccn2[C@@H]1C[C@H](COc2ccc3cc(Cl)c(N)nc3c2)[C@@H](O)[C@H]1O [Compound 228] | 
39.8 nM |  | CNc1ncnc2c1ccn2[C@@H]1O[C@H](CCc2ccc3cc(F)c(N)nc3c2)[C@@H](O)[C@H]1O [Compound 229] | 
631 nM |  | COc1ncnc2c1ccn2[C@@H]1O[C@H](CCc2ccc3cc(F)c(N)nc3c2)[C@@H](O)[C@H]1O [Compound 230] | 
0.631 nM |  | Nc1nc2cc(CC[C@H]3O[C@@H](n4ccc5c(N)ncnc54)[C@H](O)[C@@H]3O)ccc2cc1F [Compound 231] | 
3.98 nM |  | CNc1ncnc2c1ccn2[C@@H]1O[C@H](COc2ccc3cc(Br)c(N)nc3c2)[C@@H](O)[C@H]1O [Compound 232] | 
< 0.2 nM |  | Nc1nc2cc(OC[C@H]3O[C@@H](n4ccc5c(N)ncnc54)[C@H](O)[C@@H]3O)ccc2cc1Br [Compound 233] | 
794 nM |  | Nc1nc2cc(OC[C@H]3O[C@@H](n4ccc5c(O)ncnc54)[C@H](O)[C@@H]3O)ccc2cc1Br [Compound 234] | 
0.2 nM |  | Nc1nc2cc(CC[C@H]3O[C@@H](n4ccc5c(N)ncnc54)[C@H](O)[C@@H]3O)ccc2cc1Br [Compound 235] | 
< 0.2 nM |  | Nc1nc2cc(OC[C@H]3C[C@@H](n4ccc5c(N)ncnc54)[C@H](O)[C@@H]3O)ccc2cc1Br [Compound 236] | 
3.16 nM |  | Nc1nc2cc(CC[C@H]3O[C@@H](n4ccc5c(N)ncnc54)[C@H](O)[C@@H]3O)ccc2cc1C(F)(F)F [Compound 244] | 
0.794 nM |  | Nc1nc2cc(CC[C@H]3C[C@@H](n4ccc5cnccc54)[C@H](O)[C@@H]3O)ccc2cc1Cl [Compound 247] | 
0.631 nM |  | Nc1nc2cc(CC[C@H]3C[C@@H](n4ccc5c(N)nccc54)[C@H](O)[C@@H]3O)ccc2cc1Br [Compound 252] | 

Structure (SMILES) | IC50 [1] | IC50 [2, 3] | IC50 [2, 4]
Nc1ncnc2c1ccn2[C@@H]1C[C@H](COc2ccc3cccnc3c2)[C@@H](O)[C@H]1O [Compound 46] | 63.1 nM | 126 nM | 
Nc1ncnc2c1ccn2[C@@H]1C[C@H](CCc2ccc3ccc(NCC4CC4)nc3c2)[C@@H](O)[C@H]1O [Compound 74] | 0.126 nM |  | 0.398 nM
